Reference: patent publication US9649305B2, “PFKFB3 inhibitor and methods of use as an anti-cancer therapeutic” (ADVANCED CANCER THERAPEUTICS, LLC, priority 2012, dated 2017)
Where two headings read alike, the source gives them in different places.

Tests used:
[1] = test system: lung cancer model, pancreatic cancer model, colon cancer model; test: Tumor growth inhibition in mouse cancer models
Description: Studies determining efficacy of PFK-158 at inhibiting tumor growth in mouse cancer models were performed. These studies were carried out with PFK-158 alone and in combination with compounds currently used in the treatment of cancer patients. Studies were performed in a lung cancer model, a pancreatic cancer model, and in a colon cancer model.
Efficacy of PFK-158 was studied in vivo in tumor models. Several tumor models were used in these studies (the Lewis lung carcinoma, or LLC model, the CT-26 colon carcinoma tumor model, or the BXPC3 pancreatic cancer model). The experimental protocol for the LLC study is described below. Subsequent to subcutaneous inoculation of tumor cells, tumors started to develop and once tumors reached the desired volume of 100-125 mm^3 on average, treatment was initiated. Tumor volume was monitored in both groups and the average for both the control and treatment groups was measured three times a week, as well as body weights.
Briefly, normal female C57BL/6 mice at 7-8 weeks of age were used for the study. Mice were housed in microisolator housing, with food and water provided as libitum, and quarantined for 4 days prior to the initiation of the study. LLC cells were maintained in a monolayer culture in DMEM medium supplemented with 10% heat inactivated fetal calf serum, 100 U/ml penicillin and 100 μg/ml streptomycin, and L-glutamine (2 mM) at 37° C. in an atmosphere of 5% CO2 in air. The tumor cells were routinely sub-cultured twice a week. The cells growing in an exponential phase were harvested and counted for tumor inoculation. Each mouse was inoculated subcutaneously at the right flank with the LLC tumor cells (3×10^5) in 0.1 ml of PBS for tumor development. When athymic nude mice were used, as for the BxPC3 model, then the strain of mice is slightly different. Furthermore, the use of Matrigel supports tumor development, meaning that cells are suspended in 100 μl of a mixture of medium/Matrigel (1:1) and are then subcutaneously implanted in the right flank region. Animals were monitored for tumor growth daily after cell implantation. When tumor volumes reached approximately 100-125 mm^3, mice were randomized into groups of 8 mice each using only mice having tumor volumes closest to the mean value. Tumor volumes were measured using the formula V=L×W×H×π/6, where L and W represent the longer and shorter diameters of the tumor and H represents the height of the tumor. Treatment began following randomization. PFK-158 was administered IP at a dose of 60 mg/kg on days 1, 3, 5, 7, 9, 11, and 13.
Similar protocols were used for the other studies using different models; differences included the use of Balbc/nude mice; administering larger number of cancer cells; and use of Matrigel.

LLC tumor = test: Lewis lung carcinoma (LLC) model; assay type: in vivo; conditions: IP 60 mg/kg on days 1, 3, 5, 7, 9, 11, 13
Excerpt: Treatment began following randomization.

PFKFB3 = PFKFB3 (Homo sapiens, UniProt Q16875); test: Enzymatic activity of recombinant PFKFB3, ADP-Glo assay; assay type: biochemical
Description: The inducible bifunctional 6-Phosphofructo-2-kinase/fructose2,6-biphosphatase enzyme (PFKFB3) was expressed and purified in order to determine if PFK-158 inhibits enzymatic activity. PFKFB3 was prepared by expression in E. coli and purified by GST column and column chromatography. […] The recombinant protein was pure and active as determined by the results of a commercially available kinase activity assay (ADP-Glo™, Promega, Madison, Wis.).

[2] = In vitro stability in human liver microsomes; assay type: in vitro ADME
[3] = Maximum tolerated dose study; assay type: in vivo; conditions: 3 days on/3 days off schedule
Description: Several maximum tolerated dose studies and toxicology studies were performed and the results indicated PFK-158 is safer than PFK-015. Studies were performed in C57/B16 mice and SD rats.

[4] = Photoisomerization in formulation; assay type: physicochemical; conditions: phospho-lipidic aqueous emulsion or emulsifier-free, solvent-free aqueous solution
Excerpt: Further, the solubility properties of PFK-158 are such that, if required, the compound can be administered using either a phospho-lipidic aqueous based emulsion, or in an emulsifier-free, solvent-free aqueous based solution.

BT474 = test: Cancer cell proliferation, MTT assay; assay type: cell-based; conditions: Homo sapiens, BT-474, 48 hours
Description: (§1) The ability of PFK-158 to kill or inhibit the proliferation of cancer cells was measured using either the MTT assay, the alamarBlue® assay (Invitrogen, Grand Island, N.Y.), or the CellTiter Glo™ assay (Promega, Madison, Wis.) using 48 or 72 hours exposure.
(§2) Cells of the desired tumor cell line were plated at 2×10^5 cells/ml in 96 well plates. Twice the indicated concentrations of the compounds of the invention were added to cells the following day in an equal volume of media. 72 hours later, cells were lysed and subjected to ATP determination using the CellTiter-Glo™ Luminescent Cell Viability Assay kit. Experiments were performed in triplicate. When using the MTT assay or the alamarBlue® assay, the experimental conditions are essentially similar; at the end of the incubation period, 20 microliters of the MTT solution is added per well and the samples are incubated for an additional four hours, rinsed, and absorbance at 570 nm was measured. Results for the inhibition of cell proliferation are reported as the IC50 (the concentration resulting in 50% inhibition of proliferation of the cell population) and are listed in Table 5 below. Cell lines include lung, colon, prostate, breast, ovarian, and pancreatic cancer lines.

HCT116 = test: Cancer cell proliferation, MTT assay; assay type: cell-based; conditions: Homo sapiens, HCT-116, 48 hours
Description: as §1, §2

SK-BR-3 = test: Cancer cell proliferation, MTT assay; assay type: cell-based; conditions: Homo sapiens; SK-BR-3, MTT assay, 48 hours
Description: as §1, §2

MiaPaCa-2 = test: Cancer cell proliferation, MTT assay; assay type: cell-based; conditions: Homo sapiens, MIA PaCa-2; MiaPaCa-2, MTT assay, 48 hours
Description: as §1, §2

PC-3 = test: Cancer cell proliferation, MTT assay; assay type: cell-based; conditions: Homo sapiens; PC-3, MTT assay, 48 hours
Description: as §1, §2

SKOV-3 = test: Cancer cell proliferation, MTT assay; assay type: cell-based; conditions: Homo sapiens, SK-OV-3; SKOV-3, MTT assay, 48 hours
Description: as §1, §2

SW620 = test: Cancer cell proliferation, MTT assay; assay type: cell-based; conditions: Homo sapiens, SW-620, 48 hours
Description: as §1, §2

HT29 = test: Cancer cell proliferation, MTT assay; assay type: cell-based; conditions: Homo sapiens, HT-29, 48 hours
Description: as §1, §2

A498 = test: Cancer cell proliferation, MTT assay; assay type: cell-based; conditions: Homo sapiens, 48 hours
Description: as §1, §2

A549 = test: Cancer cell proliferation, MTT assay; assay type: cell-based; conditions: Homo sapiens, 48 hours
Description: as §1, §2

Sequence of PFKFB3 (Q16875 whole entry): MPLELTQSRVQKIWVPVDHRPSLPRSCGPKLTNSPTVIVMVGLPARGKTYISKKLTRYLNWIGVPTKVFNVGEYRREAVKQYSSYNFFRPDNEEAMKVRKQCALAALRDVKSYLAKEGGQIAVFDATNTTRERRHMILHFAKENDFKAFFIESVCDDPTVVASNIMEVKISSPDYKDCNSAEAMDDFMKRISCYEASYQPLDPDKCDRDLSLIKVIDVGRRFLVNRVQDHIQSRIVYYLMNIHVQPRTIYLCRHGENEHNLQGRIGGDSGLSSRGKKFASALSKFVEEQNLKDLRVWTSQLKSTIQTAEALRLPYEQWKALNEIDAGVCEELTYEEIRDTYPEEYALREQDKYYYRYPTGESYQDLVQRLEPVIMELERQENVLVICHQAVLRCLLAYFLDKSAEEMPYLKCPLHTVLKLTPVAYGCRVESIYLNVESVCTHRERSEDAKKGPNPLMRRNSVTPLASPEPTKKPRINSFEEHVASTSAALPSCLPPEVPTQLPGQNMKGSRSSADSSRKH

## O=C(/C=C/c1ccc2ccc(C(F)(F)F)cc2n1)c1ccncc1 [PFK-158, (E)-1-(pyridyn-4-yl)-3-(7-(trifluoromethyl)quinolin-2-yl)-prop-2-en-1-one]
[1]; lung, pancreatic and colon cancer mouse models
  tumor growth inhibition: 50% to 70
[1]; mouse, in vivo
  body weight loss: without noticeable body weight loss or death
[1]; tumor models, FIGS. 6-8
  effect of combination with other chemotherapeutic agents: additive or synergistic effect
LLC tumor
  body weight loss (tolerability): no noticeable body weight loss
PFKFB3; FIG. 1, read-out: IC50, inhibition of recombinant PFKFB3 (ADP-Glo)
  IC50: 137 ± 15 nM
PFKFB3; Table 1, read-out: IC50, Enzymatic activity of PFKFB3, ADP Glo Assay
  IC50: 137 ± 15 nM
PFKFB3; Table 6, read-out: IC50 Rec PFKFB3
  IC50: 137 ± 15 nM
PFKFB3; Table 8, read-out: IC50, Enzymatic activity of PFKFB3, ADP-Glo Assay
  IC50: 137 ± 15 nM
[2]
  Percent metabolized after 1 hr: 37%
[3]; C57/B16, mouse, in vivo, read-out: MTD
  MTD: > 45 mg/kg
[3]; Table 4, body weight loss superior to 10% or death
  MTD: Not reached, >45 mg/kg
[4]
  photoisomerization in solution: does not, in the formulation mentioned above, undergo a rapid photoisomerization
BT474
  IC50: 1950 nM
HCT116
  IC50: 3400 nM
SK-BR-3
  IC50: 1600 nM
MiaPaCa-2
  IC50: 3350 nM
PC-3
  IC50: 1180 nM
SKOV-3
  IC50: 2620 nM
SW620
  IC50: 2670 nM
HT29
  IC50: 4130 nM
A498
  IC50: 3510 nM
A549
  IC50: 8650 nM
